Source: patent US20060223792A1, “Phenyl and pyridyl LTA4H modulators” (priority 2005, published 2006)

The molecules below were run against T1, recombinant human LTA4 hydrolase (rhLTA4H) (Homo sapiens, UniProt P09960) (assay: Recombinant human LTA4 hydrolase assay for LTA4 hydrolase inhibitor activity). Settings: recombinant human LTA4H, LTB4 quantified by enzyme-linked immunoassay; average of one to three determinations; read-out: IC50.
T1 construct: made in house; host or cells: Spodoptera frugiperda (Sf-9) cells, baculovirus (pFastBac1)
T1 sequence (P09960 1-611): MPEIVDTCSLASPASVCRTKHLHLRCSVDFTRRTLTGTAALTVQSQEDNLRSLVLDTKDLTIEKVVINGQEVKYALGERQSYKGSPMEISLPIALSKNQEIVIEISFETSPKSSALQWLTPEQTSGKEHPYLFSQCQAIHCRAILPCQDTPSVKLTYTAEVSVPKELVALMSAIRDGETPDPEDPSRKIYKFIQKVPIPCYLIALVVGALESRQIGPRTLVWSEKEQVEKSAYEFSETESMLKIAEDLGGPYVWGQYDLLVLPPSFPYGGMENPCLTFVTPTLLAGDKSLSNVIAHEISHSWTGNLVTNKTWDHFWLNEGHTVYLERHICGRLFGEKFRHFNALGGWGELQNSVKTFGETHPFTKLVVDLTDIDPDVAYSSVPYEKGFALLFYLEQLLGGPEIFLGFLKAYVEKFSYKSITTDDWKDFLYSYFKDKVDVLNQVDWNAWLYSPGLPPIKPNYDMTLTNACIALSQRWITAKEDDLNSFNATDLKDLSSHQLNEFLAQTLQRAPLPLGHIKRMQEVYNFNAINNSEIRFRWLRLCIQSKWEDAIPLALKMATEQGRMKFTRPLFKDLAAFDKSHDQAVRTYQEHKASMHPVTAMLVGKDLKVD
Type: biochemical
Method: Recombinant Human LTA4 Hydrolase Assay for LTA4 Hydrolase Inhibitor Activity
Compounds of the present invention were tested for LTA4 hydrolase inhibitor activity against recombinant human LTA4 hydrolase (rhLTA4H). Vectors were prepared and used to express rhLTA4H essentially as follows: LTA4 hydrolase encoding DNA was amplified by polymerase chain reaction (PCR) using a human placental cDNA library as a template. Oligonucleotide primers for the PCR reaction were based on the 5′-end, and the complement of the 3′-end, of the published nucleotide sequence for the coding region of the human LTA4 hydrolase gene (C. D. Funk et al., Proc. Natl. Acad. Sci. USA 1987, 84:6677-6681). The amplified […] DNA fragment encoding LTA4 hydrolase was isolated and cloned into the pFastBac1 vector (Invitrogen). Recombinant baculovirus was generated as described by the manufacturer, and used to infect Spodoptera frugiperda (Sf-9) cells. Recombinant LTA4 hydrolase enzyme was purified from the infected Sf-9 cells essentially as described by J. K. Gierse et al. (Protein Expr. Purif. 1993, 4(5):358-366). The purified enzyme solution was adjusted to contain 0.29 mg/mL LTA4 hydrolase, 50 mM Tris (pH 8.0),150 mM NaCl, 5 mM dithiothreitol, 50% glycerol, and EDTA-free Complete protease inhibitor cocktail (Roche). The specific activity of the enzyme was about 3.8 μmol/min/mg.
LTA4 substrate was prepared from the methyl ester of LTA4 (Cayman Chemical) by treatment with 67 equiv. of NaOH under nitrogen at rt for 40 min. The LTA4 substrate in its free acid form was kept frozen at −80° C. until needed. Each compound was diluted to different concentrations in assay buffer (0.1 M potassium phosphate (pH 7.4), 5 mg/mL fatty acid free BSA) containing 10% DMSO. A 25-μL aliquot of each compound dilution was incubated for 10 min at rt with an equal volume of assay buffer containing 36 ng of recombinant human LTA4H. The solution was then adjusted to 200 μL with assay buffer. LTA4 (free acid) was thawed and diluted in assay buffer to a concentration of 357 ng/mL, and 25 μL (9 ng) of LTA4 substrate was added to the reaction mixture (total volume=225 μL) at time zero. Each reaction was carried out at rt for 10 min. The reaction was stopped by diluting 10 μL of the reaction mixture with 200 μL of assay buffer. LTB4 was quantifiedin the diluted sample by a commercially available enzyme-linked immunoassay (Cayman Chemical Co.), as recommended by the manufacturer. Positive controls, under essentially identical conditions but without addition of an inhibitor compound, and negative controls, containing all assay components except enzyme, were routinely run in each experiment. IC50 values were determined by fitting the activity data at different compound concentrations to a 4-parameter equation using the Grafit program (Erithacus software).
The IC50 values presented in the table below should be expected to fall within the typical three-fold variability of assays of this type. The values presented here are, in general, an average of one to three determinations.

| Compound | IC50 |
| --- | --- |
| O=C(Nc1ccccc1)Oc1ccc(OCCN2CCC(O)(c3ccc(Cl)c(C(F)(F)F)c3)CC2)cc1 [Example 54, Phenyl-carbamic acid 4-{2-[4-(4-chloro-3-trifluoromethyl-phenyl)-4-hydroxy-piperidin-1-yl]-ethoxy}-phenyl ester] | 7 nM |
| O=C(Nc1ccccc1)Oc1ccc(OCCN2CCCCCC2)cc1 [Example 55, Phenyl-carbamic acid 4-(2-azepan-1-yl-ethoxy)-phenyl ester] | 0.5 nM |
| O=C(Nc1ccccc1)Oc1ccc(OCCN2CCC(O)(c3ccc(Br)cc3)CC2)cc1 [Example 56, Phenyl-carbamic acid 4-{2-[4-(4-bromo-phenyl)-4-hydroxy-piperidin-1-yl]-ethoxy}-phenyl ester] | 3 nM |
| O=C(Nc1ccccc1)Oc1ccc(OCCN2CCC(O)(c3ccc(Cl)cc3)CC2)cc1 [Example 57, Phenyl-carbamic acid 4-{2-[4-(4-chloro-phenyl)-4-hydroxy-piperidin-1-yl]-ethoxy}-phenyl ester] | 0.3 nM |
| O=C(Nc1ccccc1)Oc1ccc(CCN2CCC(O)CC2)cc1 [Example 58, Phenyl-carbamic acid 4-[2-(4-hydroxy-piperidin-1-yl)-ethyl]-phenyl ester] | 2 nM |
| CCN(CCc1ccc(OC(=O)Nc2ccccc2)cc1)C1CCCCC1 [Example 59, Phenyl-carbamic acid 4-[2-(cyclohexyl-ethyl-amino)-ethyl]-phenyl ester] | 0.6 nM |
| O=C(Nc1ccccc1)Oc1ccc(CCN2CCCC2)cc1 [Example 60, Phenyl-carbamic acid 4-(2-pyrrolidin-1-yl-ethyl)-phenyl ester] | 4 nM |
| O=C(Nc1ccccc1)Oc1ccc(CCN2CCCCCC2)cc1 [Example 61, Phenyl-carbamic acid 4-(2-azepan-1-yl-ethyl)-phenyl ester] | 2 nM |
| CCCN(CCc1ccc(OC(=O)Nc2ccccc2)cc1)CC1CC1 [Example 62, Phenyl-carbamic acid 4-[2-(cyclopropylmethyl-propyl-amino)-ethyl]-phenyl ester] | 4 nM |
| CCCCN(CCCC)CCc1ccc(OC(=O)Nc2ccccc2)cc1 [Example 63, Phenyl-carbamic acid 4-(2-dibutylamino-ethyl)-phenyl ester] | 0.6 nM |
| O=C(Nc1cccs1)Oc1ccc(OCCN2CCCCC2)cc1 [Example 65, Thiophen-2-yl-carbamic acid 4-(2-piperidin-1-yl-ethoxy)-phenyl ester] | 7 nM |
| CCOC(=O)C1CCCCN1C1CCN(CCc2ccc(OCCc3ccccc3)cc2)CC1 (stereo not drawn) [Example 66, 1′-[2-(4-Phenethyloxy-phenyl)-ethyl]-[1,4′]bipiperidinyl-2-carboxylic acid ethyl ester] | 88 nM |
| O=C(Oc1ccc(OCCN2CCCCC2)cc1)c1c[nH]c2ccccc12 [Example 68, 1H-Indole-3-carboxylic acid 4-(2-piperidin-1-yl-ethoxy)-phenyl ester] | 86 nM |
| Fc1ccccc1CCOc1ccc(OCCN2CCCCC2)cc1 [Example 70, 1-(2-{4-[2-(2-Fluoro-phenyl)-ethoxy]-phenoxy}-ethyl)-piperidine] | 100 nM |
| OC(COc1ccc(OCCN2CCCCC2)cc1)c1ccccc1 (stereo not drawn) [Example 71, 1-Phenyl-2-[4-(2-piperidin-1-yl-ethoxy)-phenoxy]-ethanol] | 5 nM |
| CCN(CCc1ccc(OCC(=O)c2ccccc2)cc1)C1CCCCC1 [Example 72, 2-{4-[2-(Cyclohexyl-ethyl-amino)-ethyl]-phenoxy}-1-phenyl-ethanone] | 10 nM |
| CCN(CCc1ccc(OCC(O)c2ccccc2)cc1)C1CCCCC1 (stereo not drawn) [Example 73, 2-{4-[2-(Cyclohexyl-ethyl-amino)-ethyl]-phenoxy}-1-phenyl-ethanol] | 10 nM |

| Compound | IC50 |
| --- | --- |
| Oc1ccc(CCOc2ccc(OCCN3CCCCC3)cc2)cc1 [Example 74, 4-{2-[4-(2-Piperidin-1-yl-ethoxy)-phenoxy]-ethyl}-phenol] | 50 nM |
| COC(=O)C1CCN(CCc2ccc(OCC(=O)c3ccccc3)cc2)CC1 [Example 75, 1-{2-[4-(2-Oxo-2-phenyl-ethoxy)-phenyl]-ethyl}-piperidine-4-carboxylic acid methyl ester] | 42 nM |
| COC(=O)C1CCN(CCc2ccc(OCC(O)c3ccccc3)cc2)CC1 (stereo not drawn) [Example 76, 1-{2-[4-(2—hydroxy-2-phenyl-ethoxy)-phenyl]-ethyl}-piperidine-4-carboxylic acid methyl ester] | 3 nM |
| COC(=O)C1CCN(CCc2ccc(OCCc3ccccc3)cc2)CC1 [Example 77, 1-[2-(4-Phenethyloxy-phenyl)-ethyl]-piperidine-4-carboxylic acid methyl ester] | 6 nM |
| NC(=O)C1CCN(CCc2ccc(OCC(O)c3ccccc3)cc2)CC1 (stereo not drawn) [Example 78, 1-{2-[4-(2-Hydroxy-2-phenyl-ethoxy)-phenyl]-ethyl}-piperidine-4-carboxylic acid amide] | 6 nM |
| O=C1CCCCN1C1CCN(CCc2ccc(OCCc3ccccc3)cc2)CC1 [Example 80, 1′-[2-(4-Phenethyloxy-phenyl)-ethyl]-[1,4′]bipiperidinyl-2-one] | 11 nM |
| O=C1CCCN1C1CCN(CCOc2ccc(OCCc3ccccc3)cc2)CC1 [Example 82, 1-{1-[2-(4-Phenethyloxy-phenoxy)-ethyl]-piperidin-4-yl}-pyrrolidin-2-one] | 6 nM |
| O=C1CN(CCc2ccc(OCCc3ccccc3)cc2)CCN1 [Example 83, 4-[2-(4-Phenethyloxy-phenyl)-ethyl]-piperazin-2-one] | 100 nM |
| CCOC(=O)CCNCCc1ccc(OCCc2ccccc2)cc1 [Example 84, 3-[2-(4-Phenethyloxy-phenyl)-ethylamino]-propionic acid ethyl ester] | 10 nM |
| CCOC(=O)CCN(C)CCc1ccc(OCCc2ccccc2)cc1 [Example 85, 3-{Methyl-[2-(4-phenethyloxy-phenyl)-ethyl]-amino}-propionic acid ethyl ester] | 43 nM |
| O=C(O)C1CCN(CCOc2ccc(OCCc3ccccc3)cc2)CC1 [Example 86, 1-[2-(4-Phenethyloxy-phenoxy)-ethyl]-piperidine-4-carboxylic acid] | 17 nM |
| CCOC(=O)CCN(CCc1ccc(OCCc2ccccc2)cc1)C1CCCCC1 [Example 87, 3-{Cyclohexyl-[2-(4-phenethyloxy-phenyl)-ethyl]-amino}-propionic acid ethyl ester] | 5 nM |
| CN(CCC(=O)O)CCc1ccc(OCCc2ccccc2)cc1 [Example 88, 3-{Methyl-[2-(4-phenethyloxy-phenyl)-ethyl]-amino}-propionic acid] | 4 nM |
| CCOC(=O)CCN(CCc1ccc(OCCc2ccccc2)cc1)C1CCN(C(C)=O)CC1 [Example 90, 3-{(1-Acetyl-piperidin-4-yl)-[2-(4-phenethyloxy-phenyl)-ethyl]-amino}-propionic acid ethyl ester] | 21 nM |
| CC(=O)N1CCC(N(CCC(=O)O)CCc2ccc(OCCc3ccccc3)cc2)CC1 [Example 91, 3-{(1-Acetyl-piperidin-4-yl)-[2-(4-phenethyloxy-phenyl)-ethyl]-amino}-propionic acid] | 0.7 nM |
| O=C(O)C1CCN(CCc2ccc(OCC(O)c3ccccc3)cc2)CC1 (stereo not drawn) [Example 92] | 81 nM |
